In patent US20200277246A1, “TREATMENT METHOD, COMPOUNDS, AND METHOD OF INCREASING TRPV2 ACTIVITY” (THE FEINSTEIN INSTITUTE FOR MEDICAL RESEARCH, priority 2015, published 2020):

Key:
[1] = target: T1, Trpv2 (Rattus norvegicus, UniProt Q9WUD2); experiment: Intracellular calcium influx (Fluo-4 NW) in DA FLS; type: cell-based; set-up: endogenous in cells; host or cells: fibroblast-like synoviocytes (FLS) from DA rats; settings: measured over 200 seconds; compared with O1821
T1 sequence (Q9WUD2 1-761): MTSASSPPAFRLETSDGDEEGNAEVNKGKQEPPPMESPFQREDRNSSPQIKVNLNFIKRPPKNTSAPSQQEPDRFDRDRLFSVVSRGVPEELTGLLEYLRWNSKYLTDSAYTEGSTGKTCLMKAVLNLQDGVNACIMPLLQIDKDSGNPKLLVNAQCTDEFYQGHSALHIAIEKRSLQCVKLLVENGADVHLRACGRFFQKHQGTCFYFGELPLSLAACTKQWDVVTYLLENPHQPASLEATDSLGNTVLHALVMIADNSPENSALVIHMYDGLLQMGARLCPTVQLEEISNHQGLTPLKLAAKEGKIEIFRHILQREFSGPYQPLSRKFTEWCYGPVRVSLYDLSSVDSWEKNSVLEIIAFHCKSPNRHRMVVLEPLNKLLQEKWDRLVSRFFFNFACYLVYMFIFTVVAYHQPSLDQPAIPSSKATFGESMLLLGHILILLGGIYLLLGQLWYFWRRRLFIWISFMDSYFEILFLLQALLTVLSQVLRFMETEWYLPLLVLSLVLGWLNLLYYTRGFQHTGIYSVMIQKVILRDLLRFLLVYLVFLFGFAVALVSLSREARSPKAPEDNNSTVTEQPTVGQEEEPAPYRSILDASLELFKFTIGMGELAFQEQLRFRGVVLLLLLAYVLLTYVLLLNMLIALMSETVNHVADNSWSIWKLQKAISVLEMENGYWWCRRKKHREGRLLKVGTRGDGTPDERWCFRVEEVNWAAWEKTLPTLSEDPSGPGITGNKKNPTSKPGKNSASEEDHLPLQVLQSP
Method: Intracellular calcium influx was measured using the Fluo-4 NW calcium assay kit (Molecular Probes/Invitrogen) according to the manufacturer's instructions, as previously described (Laragione et al., “CXCL10 and its Receptor CXCR3 Regulate Synovial Fibroblast Invasion in Rheumatoid Arthritis,” Arthritis Rheum. 63 (11):3274-3283 (2011), which is hereby incorporated by reference in its entirety). Briefly, DA FLS were plated at a density of 4,500 cells/well in a 96-well plate (100 μl volume of complete media per well). After cell adhesion the media was changed to serum-free media for overnight culture. Serum-free media was then replaced with 50 μl of dye loading solution, followed by incubation at 37° C. for 30 minutes and a baseline fluorimetric reading. Then, O1821, LER13, or vehicle were added to their respective wells at different concentrations and fluorescence read immediately in a Fluoroskan Ascent Microplate Fluorometer (Thermo Scientific) with settings appropriate for excitation at 494 nm and emission at 516 nm.

[2] = system: C57BL/6 mice with KRN serum transfer-induced arthritis; experiment: KRN serum transfer induced arthritis (clinical scores and histology); type: in vivo, mouse; settings: KRN serum induced arthritis
Method: Seven to eight week-old C57BL/6 male mice (Jackson Laboratories) received 200 μl of KRN arthritogenic serum (Ji et al, “Genetic Influences on the End-Stage Effector Phase of Arthritis,” J. Exp. Med. 194 (3):321-330 (2001), which is hereby incorporated by reference in its entirety) (KBN TCR transgenic mice were a kind gift from Christophe Benoist and have been intercrossed with NOD at the Feinstein Institute to generate KRN mice and the arthritogenic serum) intraperitoneal (IP) on day zero (D0) and day 2 (D2). After the onset of clear ankle arthritis (day 3; D3), mice were started on O1821 10 mg/Kg IP BID or control vehicle (DMSO in saline solution). Arthritis severity was scored according to the system reported by Jirholt et al., “Genetic Linkage Analysis of Collagen-Induced Arthritis in the Mouse,” Eur. J. Immunol. 28 (10):3321-3328 (1998), which is hereby incorporated by reference in its entirety, which includes a number of involved joints and a degree of inflammation (swelling/redness) in a scale of 0-12 per mouse per day.
[…] Histology slides were scored without knowledge of treatment and according to a comprehensive scoring system previously reported that includes parameters for synovial hyperplasia, inflammatory cell infiltration, and bone and cartilage erosions (Brenner et al., “The Non-MHC Quantitative Trait Locus Cia10 Contains a Major Arthritis Gene and Regulates Disease Severity, Pannus Formation and Joint Damage,” Arthritis Rheum. 52 (1):322-332 (2005), which is hereby incorporated by reference in its entirety).

[3] = system: FLS; experiment: FLS invasion, focused library screen (Table 1); type: cell-based; settings: evaluated over 24 hours in vitro
Method: The in vitro invasiveness of FLS was assayed in a transwell system using Matrigel-coated inserts (BD Biosciences, Franklin Lakes, N.J.), as previously described (Tolboom et al., “Invasiveness of Fibroblast-Like Synoviocytes is an Individual Patient Characteristic Associated with the Rate of Joint Destruction in Patients with Rheumatoid Arthritis,” Arthritis Rheum. 52 (7):1999-2002 (2005); Laragione et al., “The Arthritis Severity Locus Cia5d is a Novel Genetic Regulator of the Invasive Properties of Synovial Fibroblasts,” Arthritis Rheum. 58 (8):2296-2306 (2008), which are hereby incorporated by reference in their entirety). Briefly, 70-80% confluent cells were harvested by trypsin-EDTA digestion, and re-suspended at 2.0×10^4 cells in 500 μl of serum-free DMEM. Cells were placed in the upper compartment of the Matrigel-coated inserts. Where indicated, O1821, LER13, or vehicle was added to the upper chamber. The lower compartment was filled with complete media and the plates were incubated at 37° C. for 24 hours. After 24 hours the upper surface of the insert was wiped with cotton-swabs to remove non-invading cells and the Matrigel layer. The opposite side of the insert was stained with Crystal Violet (Sigma) and the total number of cells that invaded through Matrigel counted at 100× magnification. Experiments were done in duplicate.

[4] = system: DBA1/J mice with collagen-induced arthritis; experiment: Collagen induced arthritis (CIA); type: in vivo, mouse; settings: for Arthritis severity (CIA): collagen-induced arthritis
From the text: CIA was induced in 8-week-old male DBA1/J mice (Jackson Laboratories) using a standard protocol (Courtenay et al., “Immunisation Against Heterologous Type II Collagen Induces Arthritis in Mice,” Nature 283 (5748):666-668 (1980); Nagler-Anderson et al., “Suppression of Type II Collagen-Induced Arthritis by Intragastric Administration of Soluble Type II Collagen,” Proc. Natl. Acad. Sci. U.S.A. 83 (19):7443-7446 (1986), which are hereby incorporated by reference in their entirety). Briefly, bovine type II collagen (Chondrex, Redmond, Wash.) was dissolved overnight in acetic acid 0.1 N and then homogenized at 1:1 with Complete Freund's Adjuvant (CFA, Difco, Detroit, Mich.). Anesthetized mice were injected intradermally with 100 μg of type II collagen emulsified in CFA in the tail. The new Trpv2 agonist LER13 (10 mg/Kg) or control vehicle (PBS 50%, PEG300 40%, PG 5%, PS80 5%) was started on day 10 (D10) and administered intra-peritoneally every-other-day (from D10 until day 55). On day 21 (D21), mice received a booster injection of 100 μg of type II collagen in incomplete Freund's adjuvant. Clinical signs of arthritis were evident on day 24 (D24).
Arthritis severity in CIA mice was scored using a modified scoring system based on Jirholt et al., “Genetic Linkage Analysis of Collagen-Induced Arthritis in the Mouse,” Eur. J. Immunol. 28 (10):3321-3328 (1998), which is hereby incorporated by reference in its entirety. Briefly, the modified scoring system ranged from 0-16 per mouse per day and included a functional component of disease severity (non-weight bearing) in the maximum score of 4 per paw. The arthritis severity index (ASI), which is the sum of all scores obtained during the observation period, was used to compare treatment groups as it provides a comprehensive assessment of arthritis severity over time, and correlates with histologic damage (Brenner et al., “The Non-MHC Quantitative Trait Locus Cia10 Contains a Major Arthritis Gene and Regulates Disease Severity, Pannus Formation and Joint Damage,” Arthritis Rheum. 52 (1):322-332 (2005); Brenner et al., “The Non-MHC Quantitative Trait Locus Cia5 Contains Three Major Arthritis Genes that Differentially Regulate Disease Severity, Pannus Formation, and Joint Damage in Collagen- and Pristane-Induced Arthritis,” J. Immunol. 174 (12):7894-7903 (2005), which are hereby incorporated by reference in their entirety).

Compound | Calcium influx [1] | other results
C=C(C)[C@@H]1CCC(C)=C[C@H]1c1c(O)cc(C)cc1O [Compound 1] | increased | Arthritis severity (KRN) [2]: Protective KRN; FLS invasion decreased by [3]: Decreased by 30%
C=C(C)[C@@H]1CCC(C)=C[C@H]1c1c(C)cc(O)cc1O [Compound 2] | increased (like DMSO, but less than O1821) | –
C=C(C)[C@H]1CCC(C)=CC1c1c(O)c(C2C=C(C)CC[C@H]2C(=C)C)c(O)c([C@@H]2C=C(C)CC[C@H]2C(=C)C)c1O (some centres unmarked) [Compound 3] | increased (20% greater than O1821) | –
C=C(C)[C@H]1CCC(C)=CC1c1c(O)cc(O)c([C@@H]2C=C(C)CC[C@H]2C(=C)C)c1O (some centres unmarked) [Compound 4] | increased (25% less than O1821) | –
C=C(C)[C@@H]1CCC(C)=C[C@H]1c1c(O)cc(O)cc1O [Compound 5] | increased (25% less than O1821) | –
C=C(C)[C@H]1CCC(C)=CC1c1c(/C=C/c2ccc(O)cc2)cc(O)c([C@@H]2C=C(C)CC[C@H]2C(=C)C)c1O (some centres unmarked) [Compound 6] | increased (similar to O1821) | –
C=C(C)[C@@H]1CCC(C)=C[C@H]1c1c(O)cc(/C=C/c2ccc(O)cc2)cc1O [Compound 7] | increased (50% less than O1821) | –
C=C(C)[C@H]1CCC(C)=CC1c1c(O)cc(O)cc1/C=C/c1ccc(O)cc1 (some centres unmarked) [Compound 8] | increased (10% less than O1821) | –
C=C(C)[C@@H]1CCC(C)=CC1c1c(O)cc(F)cc1O (some centres unmarked) [Compound 9] | increased (similar to O1821) | –
C=C(C)[C@@H]1CCC(C)=CC1c1c(O)cc(O)cc1F (some centres unmarked) [Compound 10] | increased (20% greater than O1821) | Arthritis severity (KRN) [2]: Not protective KRN and CIA; Arthritis severity (CIA) [4]: Not protective KRN and CIA; FLS invasion decreased by [3]: Decreased by 100%
C=C(C)[C@@H]1CCC(C)=CC1c1c(O)cc(O)cc1Cl (some centres unmarked) [Compound 11] | increased (20% greater than O1821) | –
C=C(C)[C@@H]1CCC(C)=CC1c1c(O)cc(Cl)cc1O (some centres unmarked) [Compound 12] | increased (20% greater than O1821) | Arthritis severity (CIA) [4]: Not protective in CIA; FLS invasion decreased by [3]: Decreased by 100%
C#Cc1cc(O)cc(O)c1C1C=C(C)CC[C@H]1C(=C)C (some centres unmarked) [Compound 14] | increased (20% greater than O1821) | Arthritis severity (KRN) [2]: Not protective in KRN; FLS invasion decreased by [3]: Decreased by 100%
(1R,2″R,2R,2″S)-6′-ethynyl-5,5″-dimethyl-2,2″-di(prop-1-en-2-yl)-1,1″,2,2″,3,3″,4,4″-octahydro-[1,1′:3′,1″-terphenyl]-2′,4′-diol [Compound 13] | – | Arthritis severity index (ASI), mean±S.D. ([4]; 10 mg/Kg IP every-other-day from D10, scoring to D76): 40.7±36.8
